According to patent publication EP4818187A1, “COMPOUND AND USE THEREOF” (Ganzhou Hemay Pharmaceutical, Co., Ltd, priority 2023, dated 2025):
Marks after values point to notes of the source that are not given here.

Tests used:
[1] = test system: MDA-MB-468 (human triple-negative breast cancer); test: In vitro inhibitory effect against human tumor cells (SRB); type: cell-based; conditions: MDA-MB-468, 72 h, MDA-MB-468, SRB, 3 days
Procedure: (§1) Cells were cultured with 5% CO2 at 37°C and saturated humidity until they reached a logarithmic growth phase (usually adherent cells were nearly fully confluent). After removing adherent cells by trypsin/EDTA digestion, the cells were collected for subsequent experiments.
(§2) The cells were inoculated into a 96-well cell culture plate (hereinafter referred to as the 96-well plate) based on the cell count shown in Table 2, cultured overnight to achieve cell adherence, and then, after different concentrations of the test compound were added, further cultured for a total of 3 days. Finally, the total cell protein in the assay wells was assayed by SRB, or the cell viability was assessed by MTT:
(§3) 2.1 Assaying total cell protein by SRB: the modification is based on the method in the literature (V. Vichai and K. Kirtikara. Sulforhodamine B colorimetric assay for cytotoxicity screening. Nature Protocols. 2006, 1: 1112-1116). Specific method: the culture medium was pipetted out from the wells, the cells were fixed with 10% trichloroacetic acid for more than 1 h, and trichloroacetic acid was removed; the cells were washed with H2O, and stained with 0.4% SRB for 15-30 min; after excess SRB was removed, the cells were washed with 1% acetic acid; 100 µl of 10 mM tris(trihydroxymethylaminomethane) was added to dissolve the protein-bound SRB, followed by assay at a wavelength of 570 nm.
(§4) 2.3: 1-2 mg of β-glucuronidase was weighed, and dissolved in PBS to prepare 2 mg/mL stock solution. Prior to use, the stock solution was diluted with a complete medium to prepare 12.5 µg/mL enzyme working solution. For assay wells requiring the enzyme, 80 µL of the enzyme working solution was added, with the β-glucuronidase at a concentration of 1 µg/well; and for assay wells not requiring the enzyme, 80 µL of the complete medium was added.
(§5) 1-3 mg of the test compound was weighed, and dissolved in DMSO to prepare 20 mM stock solution. The stock solution was diluted in a 3-fold gradient with DMSO, then diluted 100-fold with RPMI1640 basal medium to obtain 10× working solutions, with a total of 8 concentrations. 20 µL of the 10× working solutions were add to the assay wells, with the final volume of each well of 200 µL, and with the DMSO at a concentration of 0.1%.
(§6) 2.4 Calculation of inhibitory activity of compound: the experiment includes a compound test group, a compound-free positive solvent control group (PC), and a negative solvent control group (NC) without cells and the compound. Inhibition rate = [1−(testvalue−NCmean)/(PCmean−NCmean)] × 100% [formula]
(§7) The mean and SD of the inhibition rate were obtained from replicate assay wells. A curve was plotted with the compound concentrations distributed in a logarithmic form as the abscissa and with the mean inhibition rates as the ordinate, and was fitted with a 4-parameter logistic equation. The compound concentration corresponding to 50% inhibition rate on the curve is the IC50 value. Table 2: Culture medium formulation and cell inoculation concentration for human tumor cell lines

[2] = test system: Fadu (human pharyngeal squamous cell carcinoma); test: In vitro inhibitory effect against human tumor cells (MTT); type: cell-based; conditions: 72 h, 3 days
Procedure: as §1, §2
(§8) 2.2 Assaying cell viability by MTT: the modification is based on the method in the literature (J. Carmichael, W. DeGraff, A. Gazdar et al., Evaluation of a tetrazolium-based semiautomated colorimetric assay: assessment of chemosensitivity testing. Cancer Research. 1987, 47: 936-942). Specific method: For well-adherent cells: the medium was pipetted out, 100 µL of a basal medium containing 0.5 mg/mL MTT (medium free of fetal bovine serum (FBS) and other additives) was added to each well, and culture was continued for additional 3 h. The MTT-containing basal medium was pipetted out, and 100 µL of DMSO was added to each well to dissolve formazan, followed by assay at a wavelength of 490 nm.
(§9) For poorly-adherent cells: MTT solution was directly added to a concentration of 0.5 mg/mL, culture was continued for additional 3 h, and an equal volume of triple solvent was added to the system to dissolve formazan, followed by assay at a wavelength of 570 nm.
as §4, §5, §6, §7

[3] = test system: BxPC-3 (human pancreatic cancer in situ); test: In vitro inhibitory effect against human tumor cells (MTT or SRB); type: cell-based; conditions: BXPC-3, 72 h, BxPC-3, test method printed MTT (head: SRB), 3 days
Procedure: as §1, §2, §3, §8, §9, §4, §5, §6, §7

[4] = test system: human non-small cell lung cancer NCI-H1975; test: Biological Example 9: in vivo xenograft model of human non-small cell lung cancer NCI-H1975; parameters: species or system Balb/c-nu nude mice; conditions: nude mice
[5] = test system: 22RV1 (human prostate cancer); test: In vitro inhibitory effect against human tumor cells (SRB); type: cell-based; conditions: 22Rv1, 72 h, 22RV1, SRB, 3 days
Procedure: as §1, §2, §3, §4, §5, §6, §7

[6] = test system: A375 (human malignant melanoma); test: as above; type: cell-based; conditions: A-375, 72 h, 3 days
Procedure: as §1, §2, §3, §4, §5, §6, §7

[7] = test system: HepG2 (human liver cancer cell); test: as above; type: cell-based; conditions: HepG2, 72 h, 3 days
Procedure: as §1, §2, §3, §4, §5, §6, §7

[8] = test system: human ovarian cancer SK-OV-3; test: Biological Example 5: in vivo xenograft model of human ovarian cancer SK-OV-3; parameters: species or system Balb/c-nu nude mice; conditions: SK-OV-3 xenograft, nude mice; for Final body weight change (%) / Maximum body weight change (%) / Relative volume RTV (x±S.D.) / T/C (%) / Tumor inhibition rate (%) / Tumor weight (g, x±S.D.) / Body weight (g, x±S.D.) End / Body weight (g, x±S.D.) Start: 0.8 mg/kg i.v. qw×3
[9] = test system: HCT116 (human colorectal cancer); test: In vitro inhibitory effect against human tumor cells (MTT); type: cell-based; conditions: HCT-116, 72 h, 3 days
Procedure: as §1, §2, §8, §9, §4, §5, §6, §7

[10] = test system: SK-OV-3 (human ovarian cancer); test: as above; type: cell-based; conditions: SK-OV-3, 72 h, SK-OV-3, MTT, 3 days
Procedure: as §1, §2, §8, §9, §4, §5, §6, §7

[11] = test system: NCI-H1975 (human non-small cell lung cancer); test: as above; type: cell-based; conditions: NCI-H1975, 72 h, 3 days
Procedure: as §1, §2, §8, §9, §4, §5, §6, §7

[12] = test system: human non-small cell lung cancer NCI-H1975; test: Biological Example 7: in vivo xenograft model of human non-small cell lung cancer NCI-H1975; parameters: species or system Balb/c-nu nude mice; conditions: nude mice
[13] = test system: human non-small cell lung cancer NCI-H1975; test: Biological Example 10: in vivo xenograft model of human non-small cell lung cancer NCI-H1975; parameters: species or system Balb/c-nu nude mice; conditions: nude mice
[14] = With addition of βGU (1 µg/well)

CC[C@H](C)[C@@H]([C@@H](CC(=O)N1CCC[C@H]1[C@H](OC)[C@@H](C)C(=O)N[C@H](C)[C@@H](O)c1ccccc1)OC)N(C)C(=O)[C@@H](NC(=O)[C@H](C(C)C)N(C)Cc1ccc(O[C@@H]2O[C@H](C(=O)O)[C@@H](O)[C@H](O)[C@H]2O)cc1OCc1cn(CCCCCC(=O)Nc2ccc(-c3ccc(/N=N/c4ccc5c(S(=O)(=O)O)cc(S(=O)(=O)O)c(N)c5c4O)c(C)c3)cc2C)nn1)C(C)C [Example compound 3]
IC50 [1, 14]: 0.77 nM
IC50 ([1]; βGU-free): 50 nM
IC50 [2, 14]: 7.8 nM
IC50 ([2]; βGU-free): 159 nM
IC50 [3, 14]: 9.7 nM
IC50 ([3]; βGU-free): 106 nM

CC[C@H](C)[C@@H]([C@@H](CC(=O)N1CCC[C@H]1[C@H](OC)[C@@H](C)C(=O)N[C@H](C)[C@@H](O)c1ccccc1)OC)N(C)C(=O)[C@@H](NC(=O)[C@H](C(C)C)[N+](C)(CC)Cc1ccc(O[C@@H]2O[C@H](C(=O)[O-])[C@@H](O)[C@H](O)[C@H]2O)cc1OCc1cn(CCOCCC(=O)Nc2ccc(-c3ccc(/N=N/c4ccc5c(S(=O)(=O)[O-])cc(S(=O)(=O)[O-])c(N)c5c4O)c(C)c3)cc2C)nn1)C(C)C.[Na+].[Na+] (stereo partly shown) [Example compound 8]
Final body weight change (%) ([4]; 0.8 mg/kg i.v. qw×3): 4%
Maximum body weight change (%) ([4]; 0.8 mg/kg i.v. qw×3): 4.3, d17%
Relative volume RTV (x±S.D.) ([4]; 0.8 mg/kg i.v. qw×3): 0.19±0.27
T/C (%) ([4]; 0.8 mg/kg i.v. qw×3): 2.5%
Tumor inhibition rate (%) ([4]; 0.8 mg/kg i.v. qw×3): 98.3%
Tumor weight (g, x±S.D.) ([4]; 0.8 mg/kg i.v. qw×3): 0.022±0.038* * g
Body weight (g, x±S.D.) End 24d ([4]; 0.8 mg/kg i.v. qw×3, End 24d): 26.3 ± 1.5 g
Body weight (g, x±S.D.) Start ([4]; 0.8 mg/kg i.v. qw×3, Start): 25.3 ± 1.1 g
IC50 [5, 14]: 3 nM
IC50 ([5]; βGU-free): 63 nM
IC50 [6, 14]: 2.4 nM
IC50 ([6]; βGU-free): 43 nM
IC50 [7, 14]: 4 nM
IC50 ([7]; βGU-free): 86 nM
Final body weight change (%) [8]: 4.6%
Maximum body weight change (%) [8]: 4.6, d21%
Relative volume RTV (x±S.D.) [8]: 0.08±0.02
T/C (%) [8]: 0.7%
Tumor inhibition rate (%) [8]: 99.7%
Tumor weight (g, x±S.D.) [8]: 0.005 ± 0.003 g
Animal death ([8]; 0.8 mg/kg i.v. qw×3, group G5, stated to be independent of drug administration (biting and fighting injury)): One animal in group G5 died on day 18
Body weight (g, x±S.D.) End [8]: 24.1 ± 1.6 g
Body weight (g, x±S.D.) Start [8]: 22.9 ± 1.6 g
IC50 [2, 14]: 0.79 nM
IC50 ([2]; βGU-free): 19 nM
IC50 [9, 14]: 2.1 nM
IC50 ([9]; βGU-free): 51 nM
IC50 [10, 14]: 2.6 nM
IC50 ([10]; βGU-free): 61 nM
IC50 [11, 14]: 3.4 nM
IC50 ([11]; βGU-free): 72 nM
IC50 [3, 14]: 0.54 nM
IC50 ([3]; βGU-free): 21 nM

CC[C@H](C)[C@@H]([C@@H](CC(=O)N1CCC[C@H]1[C@H](OC)[C@@H](C)C(=O)N[C@H](C)[C@@H](O)c1ccccc1)OC)N(C)C(=O)[C@@H](NC(=O)[C@H](C(C)C)[N+](C)(CC)Cc1ccc(O[C@@H]2O[C@H](C(=O)[O-])[C@@H](O)[C@H](O)[C@H]2O)cc1OCc1cn(CCCCCC(=O)Nc2ccc(-c3ccc(/N=N/c4ccc5c(S(=O)(=O)[O-])cc(S(=O)(=O)[O-])c(N)c5c4O)c(C)c3)cc2C)nn1)C(C)C.[Na+].[Na+] (stereo partly shown) [Example compound 12]
Final body weight change (%) ([12]; 0.8 mg/kg i.v. qw×3): 5.8%
Maximum body weight change (%) ([12]; 0.8 mg/kg i.v. qw×3): 5.8, d21%
Relative volume RTV (x±S.D.) ([12]; 0.8 mg/kg i.v. qw×3): 0.46±0.35
T/C (%) ([12]; 0.8 mg/kg i.v. qw×3): 3.2%
Tumor inhibition rate (%) ([12]; 0.8 mg/kg i.v. qw×3): 97.8%
Tumor weight (g, x±S.D.) ([12]; 0.8 mg/kg i.v. qw×3): 0.039 ± 0.039 g
Body weight (g, x±S.D.) End ([12]; 0.8 mg/kg i.v. qw×3, End): 25.6 ± 2.4 g
Body weight (g, x±S.D.) Start ([12]; 0.8 mg/kg i.v. qw×3, Start): 24.1 ± 1.6 g
IC50 [5, 14]: 2.5 nM
IC50 ([5]; βGU-free): 77 nM
IC50 [6, 14]: 1 nM
IC50 ([6]; βGU-free): 50 nM
IC50 [7, 14]: 3 nM
IC50 ([7]; βGU-free): 106 nM
Final body weight change (%) [8]: 4.4%
Maximum body weight change (%) [8]: 4.4, d21%
Relative volume RTV (x±S.D.) [8]: 0.07±0.04
T/C (%) [8]: 0.6%
Tumor inhibition rate (%) [8]: 99.7%
Tumor weight (g, x±S.D.) [8]: 0.005 ± 0.001 g
Body weight (g, x±S.D.) End [8]: 25.1 ± 1.4 g
Body weight (g, x±S.D.) Start [8]: 24.1 ± 1.2 g
Final body weight change (%) ([13]; 0.4 mg/kg i.v. qw×2): 5.7%
Maximum body weight change (%) ([13]; 0.4 mg/kg i.v. qw×2): 5.7, d28%
Relative volume RTV (x±S.D.) ([13]; 0.4 mg/kg i.v. qw×2): 0.44±0.06
T/C (%) ([13]; 0.4 mg/kg i.v. qw×2): 8.8%
Tumor inhibition rate (%) ([13]; 0.4 mg/kg i.v. qw×2): 92.1%
Tumor weight (g, x±S.D.) ([13]; 0.4 mg/kg i.v. qw×2): 0.086 ± 0.009 g
Body weight (g, x±S.D.) End 24d ([13]; 0.4 mg/kg i.v. qw×2, End 24d): 23.1 ± 0.7 g
Body weight (g, x±S.D.) Start ([13]; 0.4 mg/kg i.v. qw×2, Start): 21.8 ± 0.6 g
IC50 [2, 14]: 0.21 nM
IC50 ([2]; βGU-free): 36 nM
IC50 [9, 14]: 1.6 nM
IC50 ([9]; βGU-free): 84 nM
IC50 [10, 14]: 1.1 nM
IC50 ([10]; βGU-free): 37 nM
IC50 [11, 14]: 1.2 nM
IC50 ([11]; βGU-free): 74 nM
IC50 [3, 14]: 0.53 nM
IC50 ([3]; βGU-free): 28 nM
